Laboratory results published in patent US20070275936A1, “Formulations and Treatment Methods” (priority 1998, published 2007).
Where two headings read alike, the source gives them in different places.

Key:
BALB/c mice = test: Reversal of immunosenescence: HBsAg vaccination of aged mice; type: in vivo; details: for mice producing anti-HBsAg in response to secondary vaccination: groups of 8, 0.3 mg/mouse at primary vaccination; for mice with increased anti-HBsAg antibody titer following secondary vaccination: groups of 8, 3 mg/mouse at primary vaccination
Method: Healthy aged (20-month) or immunologically-mature (3-month) BALB/c mice were vaccinated with hepatitis B surface antigen (HBsAg) (2 μg; Recombivax-HB; Merck) and Alum (2.75 μg). The aged mice were vaccinated with the antigen and also received a single subcutaneous injection of either 0.3 mg or 3.0 mg of 3β,7β,17β-trihydroxyandrost-5-ene (AET), BrEA or 7-oxodehydroepiandrosterone, dehydroepiandrosterone or the vehicle (placebo control). The AET, BrEA hemihydrate or dehydroepiandrosterone was present in a formulation that contained 60 mg/mL of the compound suspended in 0.1% w/v carboxymethyl cellulose sodium in 0.9% saline. 7-Oxodehydroepiandrosterone was in a formulation that contained 60 mg/mL of the compound suspended in 0.1% w/v gum arabic in 0.9% saline. A concentration of 6 mg/mL was obtained by diluting the 60 mg/mL formulation with vehicle that lacked the active substance.
Blood samples were collected 14, 21 and 34 days after treatment and the sera were analyzed by ELISA to determine the concentration of HBsAg-specific IgG (total IgG). In addition, samples obtained on day 21 were analyzed to determine the concentration of HBsAg-specific IgG1 and IgG2a subclasses. The results summarized below were average values obtained with blood samples collected 21 days after vaccination of groups of 8 mice. Subcutaneous injection was performed after shaving the hair from the thighs of each mouse. The injected volume was 50 μL for compound (3.0 mg or 0.3 mg) or placebo, and for vaccine preparation. The vehicle control consisted of carboxymethylcellulose (0.5%) in saline (0.9%). Antibody titers were determined by ELISA.
Secondary antibody response. Later, 42 days after the initial exposure to HBsAg, serum samples were taken from the mice described in the previous section and these were tested for anti-HBsAg IgG. At this time-point, vaccine-specific IgG titers were either low or undetectable. Three days later (45 days after first vaccination), the mice were injected again with HBsAg in Alum, but this time, none of the mice received immunosteroid (secondary vaccination). Serum samples collected 7 days and 14 days after the second exposure to HBsAg vaccine were assayed for anti-HBsAg antibody. […] In contrast, in aged mice that had received no immunosteroid with the first HBsAg injection, low levels of anti-HBsAg were detectable, and only in 4 of the 8 mice in this group was antibody detectable. Increases in anti-HBsAg titers were seen following secondary vaccination in aged animals that had been treated with immunosteroid in conjunction with the first HBsAg exposure. The anti-HBsAg antibody titer in serum increased following secondary vaccination in all 8 mice in the groups of aged mice that were treated at primary vaccination with the higher dose (3 mg/mouse) of AET, BrEA or 7-oxodehydroepiandrosterone, or with dehydroepiandrosterone (0.3 mg/mouse). In those aged mice that had received the lower dose (0.3 mg/mouse) of AET, BrEA or 7-oxodehydroepiandrosterone at vaccination, an intermediate response was seen, with 6 of the 8 mice producing detectable anti-HBsAg in response to secondary vaccination.

Wistar rats = test: DNBS induced distal colitis in rats; type: in vivo; details: for animals with moderate acute inflammation: 5 of 10 in immunosteroid vehicle controls; for animals with severe chronic inflammation: 14 days after DNBS challenge, 8 of 10 in immunosteroid vehicle controls; for adhesions / diarrhea / colonic ulceration: DNBS rats; for adhesions / colonic ulceration: first study, groups of 3; for diarrhea: 7-oxodehydroepiandrosterone 2 and 20 mg/mL s.c., sulfasalazine PO, AET 20 mg/kg
Method: Groups of 3 male Wistar rats (180±20 grams) fasted for 24 hours before 2,4-dinitrobenzene sulfonic acid (DNBS) or saline challenge were used. Distal colitis was induced by intra-colonic instillation of 0.5 mL of an ethanolic solution of DNBS (30 mg in 0.5 mL of a 30% ethanol in saline solution) after which 2 mL of air was injected through the cannula to ensure that the solution remained in the colon. The volume used was 0.1 mL per injection of 2 and 20 mg/mL of 7-oxodehydroepiandrosterone in a liquid formulation, was administered by subcutaneous injection once a day for 6 days. The formulation contained […] of 7-oxodehydroepiandrosterone in a non-aqueous suspension that contained 2% benzyl alcohol w/v, 0.1% Brij 96 w/v and equal volumes of PEG 300 and propylene glycol. Concentrations of 2 mg/mL and 20 mg/mL were obtained by diluting the […] with vehicle that lacked the active substance.
The first dose was given 30 minutes after DNBS challenge. Sulfasalazine (30 mg/mL in 2% Tween 80 in distilled water) was administered orally (PO) once a day (10 mL/kg/day) for 7 days, the first two doses beginning 24 hours and 2 hours before DNBS challenge. The presence of diarrhea was recorded daily by examining the anal area. Animals were fasted for 24 hours prior to being sacrificed. Animals were sacrificed on day 7 or day 8 and their colons were removed and weighed. Before removal of the colon, signs of adhesion between the colon and other organs were recorded. Also, the presence of ulcerations was noted after weighing of each colon. The “net” change of colon-to-body weight (BW) ratio was normalized relative to saline-challenged baseline group. A 30% decrease in “net” colon-to-body weight ratio was considered significant.
A total of five studies were conducted. Data from the first study are reported in this report. The 7-oxodehydroepiandrosterone at 2 and 20 mg/mL, decreased the net colon-to-body weight ratio by 19 and by 14% relative to vehicle-treated group, respectively. […] The formula 1 compound 3β,7β,17β-trihydroxyandrost-5-ene (AET) was administered by subcutaneous injections of 2 and 20 mg/day for 5 or 6 days, with the first dose injected 30 minutes post-DNBS challenge. The AET formulation was the same as the 7-oxodehydroepiandrosterone formulation, except that AET replaced 7-oxodehydroepiandrosterone. AET decreased the net colon-to-body weight ratio by 15% and 21% relative to controls (see the table below). Animals treated with AET (20 mg/kg) had no diarrhea. […] The same formulations containing BrEA hemihydrate (100 mg/mL) or dehydroepiandrosterone (20 mg/mL) decreased the net colon-to-body weight ratio by 21 and 3%, respectively relative to controls.

Sprague Dawley rats = test: TNBS induced distal colitis in rats; type: in vivo; details: day 14
Method: In another protocol formula 1 compounds were used in a similar animal model. Groups of 10 male Sprague Dawley rats (250-300 grams) were fasted for 24 hours before 2,4,6-trinitrobenzene sulfonic acid (TNBS) or saline challenge. This model presents a severe challenge to the animal's immune system. On Day 0, the rats were lightly anesthetized and a catheter inserted rectally into the colon such that the tip was 8 cm proximal to the anus. Distal colitis was induced by intra-colonic instillation of 0.5 mL of an ethanolic solution of TNBS (60 mg/mL ethanol 50% in water). The test substance, 7-oxodehydroepiandrosterone 20 mg/mL in vehicle or vehicle control was administered by subcutaneous injection (0.1 mL/injection) once a day for 6 days, the first dose being given 30 minutes after TNBS challenge. Sulfasalazine (30 mg/mL in 2% Tween 80 in distilled water) or vehicle control was administered orally (PO) once a day (10 mL/kg/day) for 7 days, the first two doses beginning 24 hours and 2 hours before […] challenge. Signs of diarrhea were recorded daily by examining the anal area. Animals were fasted for 24 hours prior to sacrifice on day 14 and the colon was removed and weighed. After gross observations of colonic tissues, 3 samples were taken from regions approximately 1, 3, and 8 cm proximal to the anus. If gross ulcers or inflammation were present, at least one sample was taken from the affected region. Before removal of the colon, signs of adhesion between the colon and other organs were recorded. […] Body weight, colon-to-body-weight ratio, and damage scores were assessed. Visible damage was scored on a 1-5 scale as follows: 0=No damage; 1=Localized hyperemia but no ulcers; 2=linear ulcers with no significant inflammation; 3=Linear ulcers with inflammation at one site; 4=Two or more sites of ulceration and/or inflammation; 5=Two or more major sites of ulceration and inflammation or one major site of ulceration and inflammation extending more than 1 cm along the length of the colon. […]

[1] = tested on: Chloroquine sensitive T996/86 P. falciparum; test: In vitro antimalarial testing (schizont inhibition / 3H-hypoxanthine incorporation); type: cell-based
Method: For in vitro antimalarial testing, micro-titer plates were used. The concentration of drugs were prepared as pMol/well according to WHO standard procedures (WHO, 1990). The test compound was dissolved in 15% DMSO in sterile RPMI-1640. Both chloroquine sensitive (e.g., WS/97) and resistant (e.g., MN/97) isolates of Plasmodium species are used.
A schizont inhibition assay was performed as follows. The micro-titer plates were predosed with various concentrations of the test compound. 50 μL of parasitised erythrocyte suspension in RPMI-1640 (0.2 mL erythrocyte+0.3 mL serum+4-5 ml RPMI-1640) were dispensed in microtiter wells that contained various concentrations of drug. Triplicate readings were made for each concentration.
A ^3H-hypoxanthine incorporation assay was performed as follows. The testing was carried out according to the procedure of Desjardins et al. 1979. After 30 hr culture at 37 degrees C., the same microtiter plates from schizont inhibition assays with another triplicate wells were pulsed with ^3H-hypoxanthine for overnight. The cell suspensions were washed twice on millipore glass fiber filter with Millipore filter apparatus. The filter discs were counted for DPM by a Beckman LS6000 β-scintillation counter. The activity of the drug was measured by plotting DPM against concentration of drug.

P. berghei HP15 ANKA = test: Four-day in vivo suppressive test in TO mice; set-up: species or system Plasmodium berghei; details: day 5 blood films, 5 equals control
Method: The 4-day suppressive test has been widely used and it can be performed within a 1 week period. The test consists of the inoculation of parasitised erythrocytes on the first day of the experiment (D0), followed by an injection of the test compound, which is also administered on the 2nd, 3rd and 4th days of the protocol. On the 5th day, blood films are taken and antimalarial activity is assessed either by calculating parasitemia, or by scoring parasite numbers on a predetermined scale (i.e., 1-5).
The protocol is summarized as follows. Five female TO mice were used per test group. P. berghei HP15 ANKA parasites were collected by cardiac puncture using a heparinised syringe from a donor mouse having a 30+% parasitaemia. The blood was diluted with diluting agent (50% HIFCS+50% sterile PBS) to a final concentration of 1% parasitaemia or 1×10^7 infected erythrocytes per 0.2 mL of the infecting suspension. […] The steroid formulations were administered intraperitoneally 2 hours after parasite inoculation. The compounds were administered once a day starting on Do, and continued on the following three days. Blood films were made from tail blood on the day after the last dosing of compound and the blood was fixed with 100% methanol and stained with 10% Giemsa. Parasitaemias were scored on a scale of 0-5, where 5 is equal to the control.
An inoculum of 1% parasitaemia […], 0.2 mL per mouse (female strain TO mice), was delivered by intravenous injection. Drug administration commenced 2 hours after inoculation on Day 1 and continued for 3 days.

Plasmodium berghei = test: Lewis rat in vivo parasitemia study; details: Lewis rats, chloroquine 40 mg/kg i.v. days 0-3
[2] = T996/86 P. falciparum in vitro, read-out: IC50

## C[C@]12CC[C@H]3[C@@H]([C@@H](O)C=C4C[C@@H](O)CC[C@@]43C)[C@@H]1CC[C@@H]2O [AET, 3β,7β,17β-trihydroxyandrost-5-ene]
BALB/c mice
  mice producing anti-HBsAg in response to secondary vaccination: 6 mice
  mice with increased anti-HBsAg antibody titer following secondary vaccination: 8 mice
Wistar rats; 7 days after DNBS challenge
  animals with moderate acute inflammation: 6 animals
Wistar rats
  animals with severe chronic inflammation: 3 animals
  adhesions: Adhesion was absent
  diarrhea: no diarrhea
Wistar rats; 14 days after challenge, treatment began the same day as challenge
  animals with ulcers: 1 animal

## C[C@]12CC[C@H](O)CC1=CC(=O)[C@@H]1[C@@H]2CC[C@]2(C)C(=O)CC[C@@H]12 [7-oxodehydroepiandrosterone]
BALB/c mice
  mice producing anti-HBsAg in response to secondary vaccination: 6 mice
  mice with increased anti-HBsAg antibody titer following secondary vaccination: 8 mice
Sprague Dawley rats
  histopathology: inflammation / lesion frequency and severity versus controls: exacerbated the inflammation
Wistar rats
  adhesions: Adhesions were absent in all three tested animals
  colonic ulceration: 1/3
  diarrhea: All animals had diarrhea

## Etienic Acid Methyl Ester
[1]; 0.938 μM
  % inhibition: 43.3%
[1]; 1.875 μM
  % inhibition: 41%
[1]; 3.25 μM
  % inhibition: 46%
[1]; 7.5 μM
  % inhibition: 40.9%
[1]; 15 μM
  % inhibition: 45.7%
[1]; 30 μM
  % inhibition: 60%
[1]; [2]
  IC50: 19.5 µM

## O=C(O)c1cc(/N=N/c2ccc(S(=O)(=O)Nc3ccccn3)cc2)ccc1O [Sulfasalazine]
Wistar rats; 7 days after DNBS challenge, 3 of 10 in immunosteroid vehicle controls
  animals with severe acute inflammation: 3 animals
Wistar rats; 7 days after DNBS challenge
  animals with moderate acute inflammation: 6 animals
Wistar rats
  animals with severe chronic inflammation: 2 animals
  adhesions: no animals exhibited adhesions or colonic ulceration
  colonic ulceration: no animals exhibited adhesions or colonic ulceration
  diarrhea: all animals treated with Sulfazalazine had diarrhea

## Etienic Acid
P. berghei HP15 ANKA; 100 mg/kg × 4 days i.p.
  Parasitaemia Score (0-5): 2

## Etianic Acid Methyl Ester
[1]; 0.938 μM
  % inhibition: 47.1%
[1]; 1.875 μM
  % inhibition: 43.4%
[1]; 3.25 μM
  % inhibition: 41.4%
[1]; 7.5 μM
  % inhibition: 45.3%
[1]; 15 μM
  % inhibition: 47.4%
[1]; 30 μM
  % inhibition: 61.5%
[1]; [2]
  IC50: 17.5 µM

## CCN(CC)CCCC(C)Nc1ccnc2cc(Cl)ccc12 (centres unmarked) [Chloroquine, reference compound]
Plasmodium berghei; Day 4, saline control 16%
  % RBC parasitemia: 10%
Plasmodium berghei; Day 11, saline control 36%
  % RBC parasitemia: 16%
[1]; Plasmodium falciparum, T996
  IC50: 0.009 µM
  inhibition at 0.00625 µM: 27.2%
  inhibition at 0.0125 µM: 86.8%
  inhibition at 0.025 µM: 94.5%
  inhibition at 0.05 µM: 97.3%
  inhibition at 0.1 µM: 94.6%
  inhibition at 0.2 µM: 95.9%
P. berghei HP15 ANKA; 3 mg/kg × 4 days i.p.
  Parasitaemia Score (0-5): 1
